Measurements: publication PMC9570042, “Impairment of Nucleolin Activity and Phosphorylation by a Trachylobane Diterpene from Psiadia punctulata in Cancer Cells” (International Journal of Molecular Sciences, 2022)

Tests used:
Jurkat cells = assay: MTT-based proliferation assay, Jurkat cells; format: cell-based; details: Homo sapiens, read-out: IC50, inhibition of proliferation (MTT)
Akt mRNA = assay: Real-time quantitative PCR of Akt mRNA in HeLa cells; format: cell-based, human; details: 20 μM, 4 h and 8 h
Description: A significant validation of the proposed model was sought through specific in-cell biological assays. hNcl is a multifunctional protein involved in a number of cell pathways, depending on its cellular localization. However, one of the most relevant roles probably played by this protein is mRNA chaperone activity carried out through the interaction of the protein RBDs with the 3′-untranslated region of several target mRNAs. As hNcl has been reported to bind the mRNAs encoding for Bcl-2 [11] and Akt its inhibition can result in the destabilization of these two messengers.
Total RNA was isolated. Total RNA was isolated from cultured using Trizol Reagent (Life Technologies, Grand Island, NY, USA) according to the manufacturer instructions and spectrophotometrically quantified […] and assessed by agarose gel electrophoresis. […] To quantify specific mRNAs, real-time PCR assays were conducted using the following primer sets: forward Akt: 5′-TCTACACCCACAGATGACAG-3′; reverse Akt: 5′-CTCAAATGCACCCGAGAAAT-3′; forward Bcl-2: 5′-GGAAGTGAACATTTCGGTGAC-3′; reverse Bcl-2: 5′-CTCCATCAGCTTCCAGACAT-3′; forward 18S 5′-CGATGCTCTTAGCTGAGTGT-3′; reverse 18S 5′-GGTCCAAGAATTTCACCTCT-3′.

HeLa cells = assay: Apoptosis analysis, Annexin V-FITC/PI and Parp/pro-Caspase 3 cleavage, HeLa cells; format: cell-based, human
Procedure: HeLa cells were seeded at 5.0 × 10^5 in 100 mm culture dishes. The day after, the cells were treated with DMSO and 12 at 10 μM and 20 μM for 48 h. The cell cycle was evaluated by propidium iodide (PI) staining of permeabilized cells (BD FACSCalibur flow cytometer, Becton Dickinson, San Jose, CA, USA). Data from 5000 events per sample were collected. The percentages of the elements in the hypodiploid region and in G0/G1, S, and G2/M phases of the cell cycle were calculated using the CellQuest and MODFIT software, respectively. The apoptosis analysis was carried out according to the protocol described in Annexin V, FITC Apoptosis Detection Kit (Dojindo EU GmbH, Munich, Germany). The samples were detected by Flow Cytometry (BD FACSCalibur flow cytometer, Becton Dickinson, San Jose, CA, USA) and analyzed by BD FACSuite software.

hNcl = hNcl (Homo sapiens, UniProt P19338); assay: CETSA apparent melting temperature of hNcl in HeLa cells; format: cell-based; parameters: endogenous in cells; host or cells: HeLa (cervical carcinoma); details: 20 μM, 2 h
Procedure: The 12/hNcl interaction was also investigated using CETSA and its effect on the hNcl denaturation temperature (Tm) in the cells was analyzed. HeLa cells incubated with 12, oridonin or the vehicle were heated to different temperatures in the 38–61 °C range, and the amount of soluble hNcl remaining at each T value was measured. […] Further CETSAs were performed using various concentrations of the compound (1–20 μM) and the amount of hNcl resisting thermal denaturation at 55.5 °C was then reported in a graph as a function of the concentration of 12 used (Figure S3 and Figure 1E). This experiment allowed the calculation of an EC50 (the compound concentration producing half of the maximum effect on hNcl stabilization) of 5 μM.
HeLa cells were seeded at 1.5 × 10^6 in 100 mm culture dishes. After 24 h, the cells were treated with compound 12 or oridonin (final concentration 20 μM) and incubated for 2 h in a CO2 incubator at 37 °C. The cells were then collected and centrifuged, and the cell pellets were washed with PBS and gently suspended in 1 mL PBS supplemented with protease inhibitors. […] The cells were then lysed and analyzed, as reported above.

Sequence of hNcl (P19338 whole entry): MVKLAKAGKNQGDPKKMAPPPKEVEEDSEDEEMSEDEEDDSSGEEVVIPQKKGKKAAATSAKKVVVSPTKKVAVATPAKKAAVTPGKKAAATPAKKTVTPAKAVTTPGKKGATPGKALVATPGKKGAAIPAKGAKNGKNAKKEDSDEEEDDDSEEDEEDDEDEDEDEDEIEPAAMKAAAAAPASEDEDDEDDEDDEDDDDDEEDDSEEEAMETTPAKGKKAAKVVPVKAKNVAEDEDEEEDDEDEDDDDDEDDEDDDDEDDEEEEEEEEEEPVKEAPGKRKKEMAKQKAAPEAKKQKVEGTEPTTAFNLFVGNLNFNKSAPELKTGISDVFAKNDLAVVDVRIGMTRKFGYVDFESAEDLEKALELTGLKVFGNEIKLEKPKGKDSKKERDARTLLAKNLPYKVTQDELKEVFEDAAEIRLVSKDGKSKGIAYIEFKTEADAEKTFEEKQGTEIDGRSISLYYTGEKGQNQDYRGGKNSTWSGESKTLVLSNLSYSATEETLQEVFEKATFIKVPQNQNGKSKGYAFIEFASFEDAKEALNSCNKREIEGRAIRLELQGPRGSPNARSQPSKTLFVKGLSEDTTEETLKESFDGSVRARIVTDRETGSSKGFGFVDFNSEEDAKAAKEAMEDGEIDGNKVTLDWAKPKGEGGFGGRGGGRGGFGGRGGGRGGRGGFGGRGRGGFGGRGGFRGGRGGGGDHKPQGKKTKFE

`CC1(CO)CCCC2(C)C1C(O)CC13CC4C(CC12)C4(C(=O)O)C3` (stereo not drawn) [compound 12, 6,19-dihydroxy-ent-trachiloban-17-oic acid] was tested, and the IC50 (Jurkat cells) was 50 µM, the “number of messengers for Akt” value (Akt mRNA) was “lowered” and the “increase in early apoptosis” value (HeLa cells; 48 h treatment, Annexin V-FITC/PI) was “approximately 20%”. The “Parp and pro-Caspase 3 cleavage” value (HeLa cells; Western blot) was “observed”, the “Tm of hNcl in cells incubated with compound” value (hNcl) was 55.5 °C and the “stabilization of hNcl (hNcl vs. T graphs) compared with oridonin” value (hNcl; 38–61 °C) was “stabilized hNcl more than oridonin did”.
